One compound from patent US20240016822A1, “USE OF NK1 ANTAGONIST PRODRUG COMPOUND IN COMBINATION WITH 5-HT3 RECEPTOR ANTAGONIST” (Shanghai Shengdi Pharmaceutical Co., Ltd., priority 2020, published 2024) can be followed below.

The term solubility denotes how much of the substance goes into solution per volume. As a reminder, the half-life is how long it takes for the measured level to halve. Low values mean rapid decline, high ones slow decline.

Where two headings read alike, the source gives them in different places.

The test system of series [1] is red blood cells (RBCs). Put plainly: Hemolytic effect on rabbit red blood cell suspension. It counts as cell-based. The following applies: 2% rabbit RBC suspension; test sample in PBS (pH 7.4 or pH 5), 0.4-2 mg/mL; concentration up to 2 mg/mL. On the procedure: 10 mL of red blood cells (RBCs) were randomly collected from the jugular vein or central auricular artery of a rabbit (EDTA whole blood), placed in a conical flask with glass beads, and shaken for 10 min to remove fibrinogen, resulting in defibrinated blood. 10 volumes of sodium chloride injection were added. The mixture was shaken uniformly and centrifuged at 1500 rpm for 10 min, and the supernatant was removed. […] The obtained red blood cells were prepared into 2% (v/v) suspension with sodium chloride injection for later use.
A test sample (the compound of formula (I)) was dissolved in PBS (pH 7.4 or pH 5), and the solution was filtered and prepared to the concentrations of 0.4 mg/mL, 0.8 mg/mL, 1.2 mg/mL, 1.6 mg/mL, and 2 mg/mL for later use.
A certain amount of the test sample solution was added to the above […] for testing in the supernatant.
The hemolytic effect of the compound provided by the present disclosure was determined by this method.
Rolapitant emulsion (formula: 4.4% polyethylene glycol 15-hydroxystearate, 1.1% medium chain triglyceride, and 0.66% soybean oil) was prepared by reference to the method described in CN102573475, and prepared with PBS to concentrations of 0.18 mg/mL, 0.09 mg/mL, 0.045 mg/mL, 0.023 mg/mL, 0.011 mg/mL, […] for later use.
The hemolytic effect was determined by the method described in Test Example 2.

Series [2] in a line: Water solubility at different pH values. It counts as physicochemical. On the procedure:
• 1.1 Preparation of reagent • Reagent: NaH2PO4·2H2O • 1.2 Preparation method
The preparation according to 100 mL specification is as follows: • pH=3.0: phosphate buffer: 100 mL of 2 mmol/L NaH2PO4, adjusted to pH 3.0 with 0.1 M H3PO4. • pH=4.0: phosphate buffer: 100 mL of 2 mmol/L NaH2PO4, […] 100 mL of 2 mmol/L Na2HPO4, adjusted to pH 9.0 with 0.1 M NaOH. • 1.3 Test method
A proper amount of a test compound was weighed, and the solution was added in small batches. The mixture was stirred until the test compound was dissolved. The content of the compound in the solution was determined. The data are shown in Table 1. • 2.1 Stability test of compound
1 mg of the sample was weighed and added to a vial. The vial was placed in a vacuum bag, which was vacuumized and placed in a container filled with allochroic silica gel. The container was sealed. Two parts were prepared in parallel. Adequate parts were prepared according to sampling time points, and the two parts for each sampling time point were placed at 4° C. and room temperature, respectively. The solubility of the compound of formula (I) was determined at different pH values.

Series [3] in a line: Pharmacokinetic test in cynomolgus monkeys. It counts as in vivo. On the procedure: With cynomolgus monkeys as test animals, the plasma concentrations of the compound of formula (I) at different time points after administration by injection were determined by LC/MS/MS. The pharmacokinetic performance of the compound was studied in cynomolgus monkeys and its pharmacokinetic characteristics were evaluated.
A certain amount of the test compound was weighed and prepared into a solution at pH 4.0 with 20 mmol/L sodium dihydrogen phosphate for later use. • 1.1 Administration Intravenous drip, injection time: about 30 min, administration dose: 3.54 mg/kg, administration concentration: […], and administration volume: 5 mL/kg. • 1.2 Operation
Blood was collected from femoral vein before administration and 5 min, 0.25 h, 0.5 h, 1 h, 2 h, 4 h, 6 h, 8 h, 10 h and 24 h after administration, about 0.6 mL for each sample. The blood samples were anticoagulated with sodium heparin and placed on ice immediately after collection. The blood samples were placed in marked centrifuge tubes after collection, and plasma was isolated by centrifugation (centrifugation conditions: 2200 g of centrifugal force, 10 min, 2-8° C.).
The contents of the compound of formula (I) and rolapitant in the plasma samples were determined by LC/MS/MS. • 1.3 Pharmacokinetic parameters

`C[C@@H](OC[C@@]1(c2ccccc2)CC[C@]2(CCC(=O)N2)CN1C(=O)OCOP(=O)(O)O)c1cc(C(F)(F)F)cc(C(F)(F)F)c1` [compound of formula (I)]: the Hemolytic effect result in series [1] is “no hemolytic effect”. The solubility was 19.8 mg/mL in series [2] (pH 7.4, thermodynamic from solid, pH 7.4, read-out: Saturated solubility); 26 mg/mL in series [2] (pH 7.4, thermodynamic from solid, pH 7.4, read-out: Solubility); 21.4 mg/mL in series [2] (phosphate buffer, pH 9, aqueous buffer, thermodynamic from solid, pH 9.0, read-out: Saturated solubility); 28 mg/mL in series [2] (phosphate buffer, pH 9, aqueous buffer, thermodynamic from solid, pH 9.0, read-out: Solubility). Moreover, the half-life in series [3] (cynomolgus monkey, analyte compound of formula (I) in plasma, intravenous drip about 30 min, 3.54 mg/kg compound of formula (I)) is 28.2 min. Moreover, the AUC(0-t) in series [3] (cynomolgus monkey, analyte compound of formula (I) in plasma, intravenous drip about 30 min, 3.54 mg/kg compound of formula (I), read-out: AUC0-24 h) came out at 1430 ng·h/mL. Also, the MRT inf in series [3] (cynomolgus monkey, analyte compound of formula (I) in plasma, intravenous drip about 30 min, 3.54 mg/kg compound of formula (I), read-out: MRT 0-∞) was found to be 15.6 min. For the same compound, the “Conversion of prodrug into active metabolite rolapitant” value in series [3] (cynomolgus monkeys, intravenous drip 3.54 mg/kg) is “quickly converted into the active metabolite rolapitant”.
